The record followed here is US20110039893A1, “GSK-3BETA INHIBITOR” (Takeda Pharmaceutical Company Limited, priority 2006, published 2011).

The structures appear in SMILES notation. Where only a bound is given, the exact number is not on record here.

The target of this assay is T1, recombinant GSK-3β enzyme (Homo sapiens, UniProt P49841).
T1 construct: FLAG (N); made in house; host or cells: Sf-21 insect cells, recombinant baculovirus (pFASTBAC1, BAC-TO-BAC)
As to the kind of experiment: GSK-3β inhibitory activity evaluation (Kinase Glo luminescence, recombinant enzyme). It counts as biochemical. Particulars: recombinant human GSK-3β 100 ng, glycogen synthase-derived substrate peptide, 2.5 μM ATP solution, 30 min room temperature. As to the method: Human GSK-3β gene was cloned by PCR using human brain cDNA (Clontech; trade name: QUICK-Clone cDNA) as a template and a primer set (GSK3β-U: 5′-[…] CTT-3′ (SEQ ID NO: 1) and GSK3β-L: 5′-[…]-3′ (SEQ ID NO: 2)) prepared by reference to the base sequence of GSK-3β gene registered under an accession No. NM_002093 in the GenBank.
PCR was performed according to the protocol attached to KOD plus DNA polymerase (TOYOBO CO., LTD.). The obtained PCR product was subjected to agarose gel (1%) electrophoresis, and DNA fragment (1.2 kb) containing GSK-3β gene was recovered from the gel, and digested with restriction enzymes EcoR I and Sal I. DNA after treatment with restriction enzymes was subjected to agarose gel (1%) electrophoresis, and the obtained DNA fragment was recovered, and ligated to plasmid pFASTBAC1 (Invitrogen) digested with restriction enzymes EcoR I and Sal I to give expression plasmid pFB-GSK3β. The base sequence of the inserted fragment was confirmed to match the object sequence. Using BAC-TO-BAC Baculovirus Expression System (Invitrogen), virus stock BAC-GSK3β of recombinant Baculovirus was prepared.
Sf-21 cells (Invitrogen) were inoculated to 150 ml Sf-900 II SEM medium (Invitrogen) containing 10% fetal bovine serum to 1×10^6 cells/ml and cultured at 27° C. for 24 hr. To the obtained culture medium was added the virus stock BAC-GSK3β of recombinant Baculovirus obtained above by 150 μl each, and the cells were further cultured for 60 hr. The culture medium was centrifuged (3000 rpm, 10 min) to separate the cells, and the cells were washed once with PBS. The cells were suspended in 10 ml of cell lysis buffer (25 mM HEPES (pH 7.5), 1% Triton X, 130 mM sodium chloride, 1 mM EDTA, 1 mM Dithiothreitol, 25 mM β-glycerophosphate, Protease inhibitor Complete (Boehringer), 1 mM sodium orthovanadate), treated 4 times in a homogenizer (POLYTRON) at 20000 rpm, 30 sec to disrupt the cells. The cell disrupt solution was centrifuged (40000 rpm, 45 min), and GSK-3β was purified from the obtained supernatant using Anti-FLAG M2 Affinity Gel (Sigma Ltd.).
To 37.5 μl of a reaction solution (25 mM HEPES (pH 7.5), 10 mM magnesium acetate, 1 mM DTT, 0.01% bovine serum albumin (Wako Pure Chemical Industries, Ltd.)) containing recombinant GSK-3β enzyme (100 ng) obtained above and substrate peptide ([…]pSEDEEE (SEQ ID NO: 3), pS is phosphorylated serine) (100 ng) derived from glycogen synthase was added a test compound (2.5 μl) dissolved in DMSO, and the mixture was incubated at room temperature for 5 min. To the obtained mixture was added ATP solution (2.5 μM ATP, 10 μl), and the mixture was reacted at room temperature for 30 min. After the reaction, the reaction was quenched by adding 50 μL of Kinase Glo Reagent (Promega) to the reaction solution. After reaction at room temperature for 10 min, the luminescence amount was measured using an ARVO multilabel counter (PerkinElmer Life Sciences). The concentration of the test compound necessary for inhibiting the luminescence amount by 50% (IC50 value) was calculated by PRISM 3.0 (Graphpad software).

T1 sequence (P49841 whole entry): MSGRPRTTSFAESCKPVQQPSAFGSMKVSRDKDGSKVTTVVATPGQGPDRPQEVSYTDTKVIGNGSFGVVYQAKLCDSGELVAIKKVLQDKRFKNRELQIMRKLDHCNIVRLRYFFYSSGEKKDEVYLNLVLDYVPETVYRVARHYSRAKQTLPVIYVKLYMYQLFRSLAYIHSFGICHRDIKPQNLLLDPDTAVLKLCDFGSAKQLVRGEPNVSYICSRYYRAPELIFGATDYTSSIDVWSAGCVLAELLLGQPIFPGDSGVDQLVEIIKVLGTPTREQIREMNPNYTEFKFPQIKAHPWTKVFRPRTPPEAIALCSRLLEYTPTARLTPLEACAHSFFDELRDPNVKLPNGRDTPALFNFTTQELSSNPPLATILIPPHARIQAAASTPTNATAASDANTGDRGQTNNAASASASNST

In the case of `O=C(CCc1nc2ccccc2s1)Nc1cc(N2CC(c3ccccc3)OC2=O)ccn1` (centres unmarked) [Example 78, 3-(1,3-benzothiazol-2-yl)-N-(4-(2-oxo-5-phenyl-1,3-oxazolidin-3-yl)pyridin-2-yl)propanamide], the concentration for half-maximal inhibition (IC50) was < 100 nM.

For the compound `O=C(Cc1cccs1)Nc1cc(N2CC(c3ccccc3)OC2=O)ccn1` (centres unmarked) [Example 79, N-(4-(2-oxo-5-phenyl-1,3-oxazolidin-3-yl)pyridin-2-yl)-2-(2-thienyl)acetamide], the IC50 amounted to 230 nM.
